Source: PubChem BioAssay (NCI)
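Five compound concentrations were applied to cells in 96-well plates for 48 hours; endpoints were derived by simple linear interpolation of the resulting dose-response curve. Definition used: TGI = concentration required for complete inhibition of growth.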

Key:
Experiment in all cases: DTP human tumour cell line panel, 48 h
OVCAR-4 ovarian = tested on: OVCAR-4 ovarian
UACC-257 melanoma = tested on: UACC-257 melanoma
NCI-H23 lung = tested on: NCI-H23 lung
NCI-H522 lung = tested on: NCI-H522 lung
M14 melanoma = tested on: M14 melanoma
NCI/ADR-RES ovarian = tested on: NCI/ADR-RES ovarian
MOLT-4 leukemia = tested on: MOLT-4 leukemia
SW-620 colon = tested on: SW-620 colon
HL-60(TB) leukemia = tested on: HL-60(TB) leukemia
MDA-MB-435 = tested on: MDA-MB-435
T-47D breast = tested on: T-47D breast
BT-549 breast = tested on: BT-549 breast
SN12C renal = tested on: SN12C renal
SK-MEL-5 melanoma = tested on: SK-MEL-5 melanoma
NCI-H226 lung = tested on: NCI-H226 lung
CAKI-1 renal = tested on: CAKI-1 renal
KM12 colon = tested on: KM12 colon
A549 NSCLC = tested on: A549 NSCLC
OVCAR-8 ovarian = tested on: OVCAR-8 ovarian
MALME-3M melanoma = tested on: MALME-3M melanoma
OVCAR-5 ovarian = tested on: OVCAR-5 ovarian
786-0 renal = tested on: 786-0 renal
MDA-MB-231 breast = tested on: MDA-MB-231 breast
HT29 colon = tested on: HT29 colon
HCC-2998 colon = tested on: HCC-2998 colon
MCF7 breast = tested on: MCF7 breast
HCT-15 colon = tested on: HCT-15 colon
PC-3 prostate = tested on: PC-3 prostate
HOP-92 NSCLC = tested on: HOP-92 NSCLC
A498 renal = tested on: A498 renal
DU-145 prostate = tested on: DU-145 prostate
HCT-116 colon = tested on: HCT-116 colon
SK-MEL-2 melanoma = tested on: SK-MEL-2 melanoma
UO-31 renal = tested on: UO-31 renal
RPMI-8226 leukemia = tested on: RPMI-8226 leukemia
U251 CNS = tested on: U251 CNS
SF-539 CNS = tested on: SF-539 CNS
SNB-75 CNS = tested on: SNB-75 CNS
LOX IMVI melanoma = tested on: LOX IMVI melanoma
ACHN renal = tested on: ACHN renal
EKVX NSCLC = tested on: EKVX NSCLC
IGROV1 ovarian = tested on: IGROV1 ovarian
OVCAR-3 ovarian = tested on: OVCAR-3 ovarian
HOP-62 NSCLC = tested on: HOP-62 NSCLC
SK-MEL-28 melanoma = tested on: SK-MEL-28 melanoma
NCI-H460 lung = tested on: NCI-H460 lung
MDA-N = tested on: MDA-N
SF-295 CNS = tested on: SF-295 CNS
SR leukemia = tested on: SR leukemia
COLO 205 colon = tested on: COLO 205 colon
UACC-62 melanoma = tested on: UACC-62 melanoma
CCRF-CEM leukemia = tested on: CCRF-CEM leukemia
SF-268 CNS = tested on: SF-268 CNS
HS 578T breast = tested on: HS 578T breast
SNB-19 CNS = tested on: SNB-19 CNS
SK-OV-3 ovarian = tested on: SK-OV-3 ovarian
TK-10 renal = tested on: TK-10 renal
RXF 393 renal = tested on: RXF 393 renal
K-562 leukemia = tested on: K-562 leukemia

N#Cc1ccc(Nc2nc3nc[nH]c3c(=O)[nH]2)cc1
TGI (OVCAR-4 ovarian): > 100 µM
TGI (UACC-257 melanoma): > 100 µM
TGI (NCI-H23 lung): > 100 µM
TGI (NCI-H522 lung): > 100 µM
TGI (M14 melanoma): > 100 µM
TGI (NCI/ADR-RES ovarian): > 100 µM
TGI (MOLT-4 leukemia): > 100 µM
TGI (SW-620 colon): > 100 µM
TGI (HL-60(TB) leukemia): > 100 µM
TGI (MDA-MB-435): > 100 µM
TGI (T-47D breast): > 100 µM
TGI (BT-549 breast): > 100 µM
TGI (SN12C renal): > 100 µM
TGI (SK-MEL-5 melanoma): > 100 µM
TGI (NCI-H226 lung): > 100 µM
TGI (CAKI-1 renal): > 100 µM
TGI (KM12 colon): > 100 µM
TGI (A549 NSCLC): > 100 µM
TGI (OVCAR-8 ovarian): > 100 µM
TGI (MALME-3M melanoma): > 100 µM
TGI (OVCAR-5 ovarian): > 100 µM
TGI (786-0 renal): > 100 µM
TGI (MDA-MB-231 breast): > 100 µM
TGI (HT29 colon): > 100 µM
TGI (HCC-2998 colon): > 100 µM
TGI (MCF7 breast): > 100 µM
TGI (HCT-15 colon): > 100 µM
TGI (PC-3 prostate): > 100 µM
TGI (HOP-92 NSCLC): > 100 µM
TGI (A498 renal): > 100 µM
TGI (DU-145 prostate): > 100 µM
TGI (HCT-116 colon): > 100 µM
TGI (SK-MEL-2 melanoma): > 100 µM
TGI (UO-31 renal): > 100 µM
TGI (RPMI-8226 leukemia): > 100 µM
TGI (U251 CNS): > 100 µM
TGI (SF-539 CNS): > 100 µM
TGI (SNB-75 CNS): > 100 µM
TGI (LOX IMVI melanoma): > 100 µM
TGI (ACHN renal): > 100 µM
TGI (EKVX NSCLC): > 100 µM
TGI (IGROV1 ovarian): > 100 µM
TGI (OVCAR-3 ovarian): > 100 µM
TGI (HOP-62 NSCLC): > 100 µM
TGI (SK-MEL-28 melanoma): > 100 µM
TGI (NCI-H460 lung): > 100 µM
TGI (MDA-N): > 100 µM
TGI (SF-295 CNS): > 100 µM
TGI (SR leukemia): > 100 µM
TGI (COLO 205 colon): > 100 µM
TGI (UACC-62 melanoma): > 100 µM
TGI (CCRF-CEM leukemia): > 100 µM
TGI (SF-268 CNS): > 100 µM
TGI (HS 578T breast): > 100 µM
TGI (SNB-19 CNS): > 100 µM
TGI (SK-OV-3 ovarian): > 100 µM
TGI (TK-10 renal): > 100 µM

CC1CCN(c2nnc(Cl)cc2C(=O)c2ccccc2)CC1
TGI (OVCAR-4 ovarian): > 100 µM
TGI (UACC-257 melanoma): 63.2 µM
TGI (RXF 393 renal): 53.9 µM
TGI (NCI-H23 lung): 82.4 µM
TGI (NCI-H522 lung): 77.7 µM
TGI (M14 melanoma): 95.5 µM
TGI (NCI/ADR-RES ovarian): > 100 µM
TGI (MOLT-4 leukemia): 55 µM
TGI (SW-620 colon): 59.6 µM
TGI (HL-60(TB) leukemia): > 100 µM
TGI (MDA-MB-435): 56.9 µM
TGI (T-47D breast): > 100 µM
TGI (BT-549 breast): > 100 µM
TGI (SN12C renal): > 100 µM
TGI (SK-MEL-5 melanoma): 31.1 µM
TGI (CAKI-1 renal): 34 µM
TGI (KM12 colon): 52.6 µM
TGI (A549 NSCLC): > 100 µM
TGI (K-562 leukemia): > 100 µM
TGI (OVCAR-8 ovarian): > 100 µM
TGI (OVCAR-5 ovarian): > 100 µM
TGI (786-0 renal): > 100 µM
TGI (MDA-MB-231 breast): 96.2 µM
TGI (HT29 colon): 39.5 µM
TGI (HCC-2998 colon): 96.6 µM
TGI (MCF7 breast): 36.9 µM
TGI (HCT-15 colon): > 100 µM
TGI (PC-3 prostate): > 100 µM
TGI (HOP-92 NSCLC): 55.5 µM
TGI (A498 renal): > 100 µM
TGI (DU-145 prostate): > 100 µM
TGI (HCT-116 colon): > 100 µM
TGI (SK-MEL-2 melanoma): 40.8 µM
TGI (UO-31 renal): > 100 µM
TGI (U251 CNS): > 100 µM
TGI (SF-539 CNS): 77.4 µM
TGI (SNB-75 CNS): 70 µM
TGI (LOX IMVI melanoma): > 100 µM
TGI (ACHN renal): > 100 µM
TGI (EKVX NSCLC): > 100 µM
TGI (IGROV1 ovarian): > 100 µM
TGI (OVCAR-3 ovarian): 71 µM
TGI (HOP-62 NSCLC): > 100 µM
TGI (SK-MEL-28 melanoma): > 100 µM
TGI (NCI-H460 lung): > 100 µM
TGI (MDA-N): 53.2 µM
TGI (SF-295 CNS): 83.9 µM
TGI (SR leukemia): 45.6 µM
TGI (COLO 205 colon): 46.9 µM
TGI (UACC-62 melanoma): > 100 µM
TGI (CCRF-CEM leukemia): 45.9 µM
TGI (SF-268 CNS): 3.04 µM
TGI (HS 578T breast): 88.7 µM
TGI (SNB-19 CNS): 92.7 µM
TGI (TK-10 renal): > 100 µM
